The target in one data set is T1, H. pylori urease (Helicobacter pylori, UniProt P69996).
T1 construct: endogenous in cells; host or cells: H. pylori ATCC 43504; sonicated, supernatant desalted on Sephadex G-25 (crude extract)
Nature of the data set: Urease inhibition, extracted H. pylori urease (indophenol method). Particulars: IC50 Extracted urease, extracted H. pylori urease. It is filed as biochemical. Here is the method:
For urease inhibition assays, 50 mL broth cultures (2.0 × 10^8 CFU/mL) were centrifuged (5000×g, 4 °C) to collect the bacteria, and after washing twice with phosphate-buffered saline (pH 7.4), the H. pylori precipitation was stored at –80 °C for 8 h, and then was returned to room temperature, and after addition of 3 mL of distilled water and protease inhibitors, sonication was performed for 60 s. Following centrifugation (15,000×g, 4 °C), the supernatant was desalted through Sephadex G-25 column (PD-10 columns, Amersham Pharmacia Biotech, Uppsala, Sweden). The resultant crude urease solution was added to an equal volume of glycerol and stored at 4 °C until use in the experiment.
Urease activity was determined in the 96-well assay plate by measuring ammonia production using the indophenol method as described by Weatherburn[20]. Briefly, to each well, 50 µL of urea (10 mM) in phosphate buffer solution was added in a mixture of 25 µL (10 U) of H. pylori urease and 25 µL of the test compound, which was incubated at 37 °C for 0.5 h. Fifty µL of phenol reagent (containing 127 mM phenol and 0.168 mM sodium nitroprusside) and 50 µL of alkali reagent (containing 125 mM NaOH and 0.168 mM NaOCl) were added in turn. The resulted mixture was incubated at 37 °C for another 0.5 h for colouration developing. The increasing absorbance was measured at 630 nm after 50 min using a microplate reader (Molecular Devices, San Jose, CA). Percentage inhibitions were calculated from the following formula (Equation (1)). Experiments were performed in triplicate and AHA was used as reference drug, and the IC50 value was determined as the concentration of compound that give 50% inhibition of maximal activity. As for the urease assay of intact cells, 25 µL (10 U) of H. pylori urease was replaced by 25 µL of cell suspension (4.0 × 10^7 CFU/mL).

Data set [1] concerns the target T2, urease in intact H. pylori cell (Helicobacter pylori, UniProt P69996).
T2 construct: H. pylori urease was replaced by 25 µL of cell suspension (4.0 × 10^7 CFU/mL); endogenous in cells; host or cells: intact H. pylori ATCC 43504 cells
As to the kind of experiment: Urease inhibition in intact H. pylori cell (indophenol method). It is filed as cell-based.

For the next data set, the system named is H. pylori. Nature of the data set: Minimum inhibitory concentration, broth microdilution (CLSI). The format is cell-based, Helicobacter pylori (ATCC 43504). The following applies: Helicobacter pylori. The procedure:
H. pylori (ATCC 43504; […] The minimum inhibitory concentration (MIC) values were determined using the broth microdilution protocol according to the methods of the Clinical and Laboratory Standards Institute (CLSI)[21].
On the technique in general: Broth dilution looks for growth in wells or tubes with falling amounts of substance.

Data set [2] concerns the target T3, Jack bean urease (Canavalia ensiformis, UniProt P07374).
T3 construct: purchased
As to the kind of experiment: Ligand affinity by surface plasmon resonance (SPR). It is filed as binding. The following applies: for kon: pH 7.4; for koff: pH 7.4, SPR, immobilised urease, PBS pH 7.4. Here is the method: The binding kinetics of selected compounds were assayed via surface plasmon resonance (SPR) using an OPEN SPR instrument (Nicoya Lifesciences, Kitchener, Canada). First, urease dissolved (50 µg/mL) in PBS buffer (1 mM KH2PO4, 155 mM NaCl, 3 mM Na2HPO4-12H2O, pH 7.4), was immobilised to a CM5 chip using a standard amine coupling procedure. Then, SPR measurements were carried out in PBS, and stock solutions were diluted in the same buffer. Data were collected with OpenSPR control software. Experiments were performed by monitoring the refractive index changes as a function of time under constant flow rate of 20 µL/min. The relative amount of inhibitor bound to the urease was determined by measuring the net increase in refractive index over time compared to control running buffer. There is an inline subtraction of reference surface during the run. This change is usually reported in response units (RU). Sensograms were processed and analysed using TraceDrawer software. The binding curves were fit to determine the equilibrium dissociation constant (KD).
In the present paper, the pure Jack bean urease from commercial was used for this assay because of non-availability of pure H. pylori urease. […] For efficient and tight ligand binding, the rate constant koff is of particular interest, because koff has a potential to differentiate indistinguishable compounds with similar affinities.

Data set [3] addresses T3, Jack bean urease. As to the kind of experiment: Enzyme kinetic study (indophenol method). It is filed as biochemical. The following applies: for Type of inhibition: Jack bean urease; for Ki': dissociation constant of urease-urea-inhibitor complex. The procedure:
Based on the indophenol method, the velocity of ammonia production (V) was measured in the presence of concentration gradients of urea ([S]) for every specific concentration of selected compounds ([I]). Nonlinear fitting curves to data of V and [S] were used to determine the type of enzyme inhibition based on the general kinetics equation (Equation (1)). Subsequently, the resulted fitting constants ( Km/Vmax(1+[I]/Ki) or 1/Vmax(1+[I]/Ki′) ) and [I] were linearly fitted to give kinetic parameters Ki and Ki', respectively. The experimental assay was performed against a pure urease (Jack bean urease) for the consideration of precision. (1) V=Vmax[S]/Km(1+[I]/Ki)+(1+[I]/K^′i)[S]
Mazzei et al. confirmed that urease shared the mechanism of catalysis and inhibition regardless of the biological sources[27]^,[28]. For excluding the possible interference, a pure urease (Jack bean urease) was therefore used for kinetic assays. As an example, Figure 2 describes the preincubation-time dependence of urease inhibition by b19. The suppressed urease activity maintained at relatively constant values with the increasing preincubation time under different concentrations of b19, resulting in nearly equal IC50 values.
Similarly, kinetic parameters ( Ki and Ki' ) and inhibition types of other compounds were also determined and are shown in Table 3.

A short description of data set [4]: Cytotoxicity MTT assay, L-02. The format is cell-based. The following applies: human, L-02 cells (normal hepatic cell line), 25 μg/mL. Here is the method:
(§1) The stock solutions of the selected compounds (250 µg/mL, in PBS) were prepared in medium. L-02 cells and P69 cells were grown in medium (90% RPMI-1640 medium, 10% foetal bovine serum, 1% penicillin/streptomycin) and maintained at 37 °C in a humidified atmosphere containing 5% CO2, respectively. Cells were seeded in 96-well cell culture plates. On the day when seeding, the cells were exposed to 250 µg/mL of compounds and further cultured for 72 h at 37 °C. Cell proliferation was then determined using the thiazolyl blue tetrazolium bromide (MTT) assay.
A general note: Tetrazolium assays rely on reduction of a dye to a coloured formazan, in cell work by metabolically active cells.

Data set [5] can be described thus: Cytotoxicity MTT assay, P69. The following applies: human, P69 cells (normal prostate cell line), 25 μg/mL. The format is cell-based. Here is the method: as §1

Converted amounts (≈) assume the structure as drawn. Where two headings read alike, the source gives them in different places. Some results are limits rather than exact numbers.

The source of these data is PMC6968641, “N-monoarylacetothioureas as potent urease inhibitors: synthesis, SAR, and biological evaluation” (Journal of Enzyme Inhibition and Medicinal Chemistry, 2019).

T2 sequence (P69996 whole entry): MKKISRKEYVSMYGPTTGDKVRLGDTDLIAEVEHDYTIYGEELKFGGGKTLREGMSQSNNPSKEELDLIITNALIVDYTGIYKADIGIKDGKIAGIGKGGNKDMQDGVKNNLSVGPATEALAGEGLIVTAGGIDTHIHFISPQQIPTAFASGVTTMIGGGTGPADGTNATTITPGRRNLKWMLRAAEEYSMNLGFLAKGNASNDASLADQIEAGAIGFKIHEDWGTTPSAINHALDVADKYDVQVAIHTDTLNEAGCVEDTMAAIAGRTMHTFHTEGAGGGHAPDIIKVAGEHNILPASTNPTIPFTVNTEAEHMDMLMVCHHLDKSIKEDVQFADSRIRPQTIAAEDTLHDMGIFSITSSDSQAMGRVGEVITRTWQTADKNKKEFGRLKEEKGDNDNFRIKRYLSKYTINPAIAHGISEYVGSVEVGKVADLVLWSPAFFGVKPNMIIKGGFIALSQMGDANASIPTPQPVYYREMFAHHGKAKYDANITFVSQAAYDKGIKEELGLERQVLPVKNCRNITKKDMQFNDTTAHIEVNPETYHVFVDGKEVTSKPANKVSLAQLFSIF
T2 sequence (P14916 whole entry, further chain): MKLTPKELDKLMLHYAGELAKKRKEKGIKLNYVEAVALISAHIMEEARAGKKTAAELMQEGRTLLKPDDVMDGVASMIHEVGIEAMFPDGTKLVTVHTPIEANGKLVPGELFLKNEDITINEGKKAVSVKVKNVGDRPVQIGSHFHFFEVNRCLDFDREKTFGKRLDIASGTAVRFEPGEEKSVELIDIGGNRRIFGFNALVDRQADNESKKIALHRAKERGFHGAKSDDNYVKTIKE
T3 sequence (P07374 whole entry, looked up): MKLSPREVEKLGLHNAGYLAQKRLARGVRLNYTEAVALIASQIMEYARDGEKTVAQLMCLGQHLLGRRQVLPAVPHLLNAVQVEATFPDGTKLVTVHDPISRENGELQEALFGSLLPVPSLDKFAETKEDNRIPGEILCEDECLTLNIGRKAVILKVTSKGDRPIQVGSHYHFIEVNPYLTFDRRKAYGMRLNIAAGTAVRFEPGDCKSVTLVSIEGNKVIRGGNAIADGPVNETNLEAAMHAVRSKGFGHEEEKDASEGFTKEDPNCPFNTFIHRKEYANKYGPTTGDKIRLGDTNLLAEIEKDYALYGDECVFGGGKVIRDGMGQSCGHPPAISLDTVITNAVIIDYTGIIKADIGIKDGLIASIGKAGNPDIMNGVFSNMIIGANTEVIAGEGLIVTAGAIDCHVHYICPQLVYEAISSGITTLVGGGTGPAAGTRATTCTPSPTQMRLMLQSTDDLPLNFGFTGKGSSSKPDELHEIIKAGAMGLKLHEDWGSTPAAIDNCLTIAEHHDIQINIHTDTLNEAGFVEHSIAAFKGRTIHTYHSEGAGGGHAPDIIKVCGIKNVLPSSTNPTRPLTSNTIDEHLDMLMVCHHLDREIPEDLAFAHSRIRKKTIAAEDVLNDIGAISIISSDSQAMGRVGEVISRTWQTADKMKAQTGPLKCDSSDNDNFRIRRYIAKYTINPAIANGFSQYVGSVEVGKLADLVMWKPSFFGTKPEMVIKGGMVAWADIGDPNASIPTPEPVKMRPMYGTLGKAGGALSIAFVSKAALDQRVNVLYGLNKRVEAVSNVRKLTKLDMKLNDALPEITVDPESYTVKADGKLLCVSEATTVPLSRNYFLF
T1 sequence (P14916 whole entry): as the sequence (P14916 whole entry, further chain) above
T1 sequence (P69996 whole entry): as the sequence (P69996 whole entry) above

Compound `NC(=S)NC(=O)Cc1ccc(F)cc1` [b23] gave a melting point of 165.4 to 166.5 °C. On H. pylori urease, this compound came in with a half-maximal inhibitory concentration (IC50) of 14.6 ± 1 µM. For the same compound, the 50% inhibitory concentration (IC50) in data set [1] came to 93.6 ± 5.5 µM. The MIC in the data set on H. pylori (pH=4.0, read-out: MIC pH=4.0) is 8 µM (≈ 1.7 µg/mL). In addition, the MIC with H. pylori (pH=7.0, read-out: MIC pH=7.0) is above 64 µM. Also, on Jack bean urease [2], the Kd worked out at 0.569 ± 0.0216 µM, the kon amounted to 54300 M⁻¹ s⁻¹ and the koff amounted to 0.0309 s⁻¹. On Jack bean urease [3], the Ki is 3.53 µM, the Type of inhibition result was “Reversible” and the “Ki'” value was 9.67 µM. Besides, in data set [4], the viability at 72 h, 25 µg/mL was 96.1%. In data set [5], the viability at 72 h, 25 µg/mL is 97.6%.
In turn, `NC(=S)NC(=O)Cc1cccc(O)c1` [b4] returned a melting point of 160.3 to 161.5 °C. Also, at H. pylori urease, 16.3 ± 0.3 µM corresponded to half-maximal inhibition (IC50). Moreover, the IC50 in data set [1] came to 108 ± 6.1 µM. For the same compound, the MIC in the data set on H. pylori (pH=4.0, read-out: MIC pH=4.0) was 64 µM (≈ 13.5 µg/mL). For the same compound, in the data set with H. pylori (pH=7.0, read-out: MIC pH=7.0), the MIC was above 64 µM. On Jack bean urease [2], the Kd came to 0.644 ± 0.0092 µM, the kon was determined as 60800 M⁻¹ s⁻¹ and the koff amounted to 0.0389 s⁻¹. Also, at Jack bean urease [3], the Ki is 4.34 µM, the Type of inhibition entry is given as “Reversible” and the “Ki'” value was found to be 8.52 µM. The viability at 72 h, 25 µg/mL in data set [4] came out at 93.7%. Further, the viability at 72 h, 25 µg/mL in data set [5] turned out to be 88.1%.
`Cc1ccc(CC(=O)NC(N)=S)cc1` [b16] displayed a melting point of 171.2 to 172.5 °C. At H. pylori urease, this compound gave an IC50 of 5.2 ± 0.32 µM. In data set [1], half-maximal inhibition (IC50) was put at 35.7 ± 1.7 µM. For the same compound, the MIC in the data set with H. pylori (pH=4.0, read-out: MIC pH=4.0) is 2 µM (≈ 0.417 µg/mL). Further, the MIC in the data set with H. pylori (pH=7.0, read-out: MIC pH=7.0) is 64 µM (≈ 13.3 µg/mL). At Jack bean urease [2], this compound came in with a Kd of 0.162 ± 0.0038 µM, a kon of 501000 M⁻¹ s⁻¹ and a koff of 0.081 s⁻¹. Also, on Jack bean urease [3], the inhibition constant Ki turned out to be 1.28 µM, the Type of inhibition entry was “Reversible” and the “Ki'” value stood at 2.84 µM. The viability at 72 h, 25 µg/mL in data set [4] was 114%. Further, the viability at 72 h, 25 µg/mL in data set [5] came to 89.9%.
`COc1ccc(CC(=O)NC(N)=S)cc1` [b11]: the melting point is 143.5 to 144.7 °C. The IC50 on H. pylori urease was determined as 16.3 ± 1.2 µM. In addition, in data set [1], half-maximal inhibition (IC50) required 98.3 ± 5.9 µM. Further, the MIC with H. pylori (pH=4.0, read-out: MIC pH=4.0) was found to be 32 µM (≈ 7.18 µg/mL). Moreover, the MIC in the data set with H. pylori (pH=7.0, read-out: MIC pH=7.0) is above 64 µM. At Jack bean urease [2], this compound gave a Kd of 0.667 ± 0.0137 µM, a kon of 572000 M⁻¹ s⁻¹ and a koff of 0.0381 s⁻¹. In addition, on Jack bean urease [3], affinity was put at a Ki of 3.94 µM, the Type of inhibition entry was “Reversible” and the “Ki'” value was determined as 12.7 µM. For the same compound, the viability at 72 h, 25 µg/mL in data set [4] was 97%. Further, in data set [5], the viability at 72 h, 25 µg/mL amounted to 87.5%.

By IC50 is commonly meant the midpoint of a concentration-inhibition curve. One may read the MIC as the smallest concentration in the dilution series that meets the test's criterion for growth inhibition. The term Kd denotes the constant that tells how readily two partners part at equilibrium. One may read the kon as a measure of how fast the partners come together. By koff is commonly meant the first-order rate constant of dissociation. Usually Ki stands for the equilibrium dissociation constant of an inhibitor or competing ligand from its target. The viability is a read-out of living cells in per cent, often relative to untreated cells. As usually defined, the melting point is the temperature of the solid-liquid transition.
